Tests used:
HCT116 cells = test: Screening of chemical libraries for IR-mediated cellular cannibalism (imaging flow cytometry, confocal validation); assay type: cell-based, human; settings: 8 Gy irradiated HCT116 cells, 10 μM compound, 24 h culture
Procedure: FIG. 4 Identification of cannibalism modulators triggered by ionizing radiation. Compounds from the Prestwick (A) and CEA (F) libraries were tested for their capacities to induce cellular cannibalism after ionizing radiation. Cannibal cells were detected after homotypic cultures of 8 gray γ-irradiation HCT116 cells in the presence or absence of 10 μM of the Prestwick (A) and CEA […] library compounds. Each dot represents one compound. Representative images are shown in (B, G). (C, H) HCT116 cells were treated with the indicated drugs. After 24 h of treatment, cell death was monitored by staining with 3,3 dihexyloxacarbocyanine iodide (DiOC6(3)) and PI^+, and the percentage of dying (DiOC6(3)^low PI^−, open bars) and dead (DiOC6(3)^low PI^+, closed bars) cells was determined by cytofluorometry. Validation of the cannibalism inducers by fluorescent microscopy. Representative images (D, I) and quantification (E, J) are shown. Results are means s.e.m. of triplicate determinations.
Untreated HCT116 cells were labeled with CMFDA (green fluorescence, CMFDA^+) or CMTMR, (red fluorescence, CMTMR) and treated HCT116 cells with CMFDA (green fluorescence, CMFDA^+). The following cell mixtures were performed: untreated CMTMR^+ HCT116 cells were mixed with untreated CMFDA^+ HCT116 cells, or untreated CMTMR^+ HCT116 cells were mixed with treated CMFDA^+ HCT116 cells. Then, cells were co-cultured during 24 hours in the presence or absence of the pharmacological inhibitor of ROCK, Y27632 (30 μM), the pan-caspase inhibitor, Z-VAD-fmk (ZVAD, 100 μM), the inhibitor of caspase-1, Ac-YVAD-cmk (YVAD, 100 μM), the necroptosis inhibitor, Necrostatin-1 (NEC1, 30 μM), the inhibitor of the vacuolar type H(+)-ATPase (V-ATPase) inhibiting autophagy, Bafilomycin A1 (BafA1, 50 nM), the inhibitor of Cdks with an anti-mitotic activity, Roscovitine (Rosco, 10 μM). After 24 hours of co-culture, both detached and adherent cells were collected and stained with Hoechst […] (10 μg/mL) during 1 hour at 37° C. in warmed complete medium. To detect phosphatidylserine (PS) exposure and plasma membrane permeability, labeled HCT116 cells were successively incubated with Biotin-AnnexinV (BD Pharmingen) as recommended by manufacturer, […] BV786-Streptavidin (BD Biosciences) and 3 μM DRAQ7 (BioStatus) during 15 minutes at 25° C. After washing with PBS solution, samples were immediately analyzed using an imaging flow cytometer FlowSight® (Amnis®, part of EMD Millipore). Data were acquired at a 20× magnification, using INSPIRE software. The 405 nm, 488 nm, and 561 nm lasers were used for excitation. Brightfield, Annexin V-BV786, DRAQ7, CMFDA, CMTMR and Hoechst […] stainings were detected using respectively channels for 420-480 nm, 745-800 nm, 642-745 nm, 480-560 nm, 595-642 nm and 430-505 nm. At least 1000 events of cells per sample were analyzed. Additional single-labeled controls were prepared to normalize fluorescent signal across different channels. Acquired data were analyzed using the IDEAS analysis software (v6.1; Merck-Millipore). Gating strategy was the following. Cells were gated for focused cells using the Gradient RMS feature. Cells were gated for single cells using the aspect ratio and area features. For the cannibalism detection, cells were gated in the double positive CMFDA^+ and CMTMR^+ staining.
To detect PS exposure, plasma membrane permeability and cell cycle progression, cells were after co-culture sequentially labeled with specific fluorescent probes (such as FITC-conjugated AnnexinV, propidium iodide, and Hoechst 33342) and analyzed by flow cytometry. Both detached and adherent cells were collected and stained with Hoechst […] (10 μg/ml) during 1 hour at 37° C. in warmed complete medium. After washing with PBS, HCT116 cells were suspended in 1× binding buffer supplemented with fluorescein isothiocyanate (FITC)-conjugated Annexin V (BD Biosciences) and propidium iodide (PI, 1 μg/mL) (Sigma), as per manufacturer's instructions. […]

CT26 cells = test: Anti-tumor vaccination assay, CT26 cells in BALB/c mice; assay type: in vivo, mouse; settings: for frequency of mice showing a protective response: 8 Gy + 10 μM compound 24 h
Procedure: FIG. 5. Identification of cannibalism modulators as immunogenic cell death inducers. MCA205 (A) or CT26 (E, I, M, Q) cells were treated with the indicated drugs. After 24 h of coculture with the indicated treatment, cell death was monitored by staining DiOC6(3) and PI, and the percentage of dying (DiOC6(3)^low PI^−, open bars) and dead (DiOC6(3)^low PI^+, closed bars) cells was determined by cytofluorometry. (B-D) MCA205 cells or (F-H, J-L, N-P, R-T) CT26 cells cocultured after x irradiation with the indicated compounds were inoculated subcutaneously into the right flank of […] or BALB/c mice, respectively. Seven days later, the mice were rechallenged with live cells injected into the opposite flank, and tumor growth was monitored (five mice per group).
FIG. 6. Tumor vaccination experiments. CT26 cells were treated for 24 hours with 10 μM VP331 (A, F, K), 10 μM Minaprine (B, G, L), 10 μM Lopa87 (C, H, M), 10 μM SG6163F (D, I, N), 10 μM Azaguanine-8 (8-aza) (E, J, O) alone or combined with 8 Gy ionizing radiation and inoculated (s.c.) into immunocompetent BALB/c mice, which were rechallenged at the opposite flank 7 days later with the same cancer cells. The percentage of tumor-free mice was evaluated three times a week for the following 38 days. Percentage of total tumor free mice (A-E), tumor free-mice at the first injection site (F to J, P) or at the second injection site (K to O, Q) are shown. (*P<0.05, **P<0.01, ***P<0.001, two-way ANOVA).
The combination of IRCCE with IR induces efficient antitumor immunity. Considering that immunogenic cell death (ICD) inducers were identified (such as Digoxin, Digitoxin, Lanatoside C or Doxorubicin hydrochloride)^3, 4, 48-51) as IRCCE, the ability of these compounds to induce an antitumor immunity after radiotherapy was evaluated. First, a preclinical approaches was developed to study the immunological effects of IRCCE on two mouse models of carcinoma (colon CT26 carcinoma and fibrosarcoma MCA205). Initially, the ability of the combination of IRCCE+IR to trigger a specific anti-tumor immune response was appreciated using immunocompetent mice through anti-tumor vaccination assays. According to previously published studies^52, the injection of cancer cells succumbing to an immunogenic cell death (ICD) into immunocompetent mice must elicit a protective immune response that is specific for tumor antigens. Thus, 3×10^5 MCA205 cells were first treated with 10 μM of SG6163F for 24 hours. Then, treated cells were inoculated subcutaneously in 200 μl PBS into the lower flank of 8-week-old female C57BL/6 mice. One week later, 3×10^4 untreated control cells were inoculated into the contralateral flank of mice. Tumors were evaluated weekly using a common caliper. Animals bearing tumors that exceeded 20-25% body mass were euthanatized. […] Then, 3×10^6 CT26 cells were irradiated with 8 Gy in presence of 10 μM of SG6163F (FIGS. 5E and 5F), VP331 (FIGS. 5I and 5J), Minaprine dihydrochloride (FIGS. 5M and 5N) or LOPA87 (FIGS. 5Q and 5R) for 24 hours. Then, cells were inoculated as previously described subcutaneously in […] into the lower flank of 8-week-old female BALB/c mice. One week later, 5×10^5 untreated control cells were inoculated into the contralateral flank of mice and tumors were evaluated weekly using a common caliper. As previously mentioned, animals bearing tumors that exceeded 20-25% body mass were euthanatized. The percentage of dying cells in each condition was evaluated by determining with DiOC(6)3/IP staining (FIGS. 5E, 5I, 5M and 5Q). Finally, the ability of these compounds to repress the growth of cancer cells that have been injected 7 days after injection of irradiated and treated cancer cells was appreciated.
A second anti-tumor vaccination assay was done on CT26 mouse models of carcinoma as previously described. […]

[1] = first assay: CT26 cells, rechallenge one week later
[2] = second assay: CT26 cells, rechallenge 7 days later

| Compound | enhancement of IR-mediated cellular cannibalism (HCT116 cells) | frequency of mice showing a protective response (CT26 cells; [1]) | frequency of mice showing a protective response (CT26 cells; [2]) | protective response after injection of cancer cells (CT26 cells; second assay: CT26 cells treated with 10 μM compound alone (no IR)) |
| --- | --- | --- | --- | --- |
| CC(=O)O[C@H]1C[C@H](O[C@H]2[C@@H](O)C[C@H](O[C@H]3[C@@H](O)C[C@H](O[C@H]4CC[C@@]5(C)[C@H](CC[C@@H]6[C@@H]5C[C@@H](O)[C@]5(C)[C@@H](C7=CC(=O)OC7)CC[C@]65O)C4)O[C@@H]3C)O[C@@H]2C)O[C@H](C)[C@H]1O[C@@H]1O[C@H](CO)[C@@H](O)[C@H](O)[C@H]1O [Lanatoside C] | efficient cellular cannibalism enhancer | – | – | – |
| COc1ccc(C)cc1/C=N/[C@@H]1C[C@@H]2C[C@H]([C@H]1C)C2(C)C [VP331] | efficient cellular cannibalism enhancer | significant increase in the frequency of mice showing a protective response | Significant increases in the frequency of mice showing a protective response | – |
| C[C@H]1O[C@@H](O[C@H]2[C@@H](O)C[C@H](O[C@H]3[C@@H](O)C[C@H](O[C@H]4CC[C@@]5(C)[C@H](CC[C@@H]6[C@@H]5C[C@@H](O)[C@]5(C)[C@@H](C7=CC(=O)OC7)CC[C@]65O)C4)O[C@@H]3C)O[C@@H]2C)C[C@H](O)[C@@H]1O [Digoxin] | efficient cellular cannibalism enhancer | – | – | – |
| CN(C)c1ccc(-c2cc(=O)[nH]c(-c3ccccc3)n2)cc1 [LOPA87] | efficient cellular cannibalism enhancer | significant increase in the frequency of mice showing a protective response | Significant increases in the frequency of mice showing a protective response | – |
| COc1cc(O)ccc1/C=N/c1ccccc1C(=O)Nc1ccccc1 [RN-1-026] | efficient cellular cannibalism enhancer | – | – | – |
| Myricetin | efficient cellular cannibalism enhancer | – | – | – |
| CC(C(=O)O)c1ccc(-c2ccccc2)c(F)c1 (stereo not shown) [Flurbiprofen] | efficient cellular cannibalism enhancer | – | – | – |
| Nc1nc2[nH]nnc2c(=O)[nH]1 [Azaguanine-8] | efficient cellular cannibalism enhancer | – | Significant increases in the frequency of mice showing a protective response | induce an increase of protective response |
| CN1c2ccccc2C(=O)N(c2ccccc2)C1c1ccc(-c2csc(CO)n2)s1 (stereo not shown) [VP43] | efficient cellular cannibalism enhancer | – | – | – |
| C[C@H]1O[C@@H](O[C@H]2[C@@H](O)C[C@H](O[C@H]3[C@@H](O)C[C@H](O[C@H]4CC[C@@]5(C)[C@H](CC[C@@H]6[C@@H]5CC[C@]5(C)[C@@H](C7=CC(=O)OC7)CC[C@]65O)C4)O[C@@H]3C)O[C@@H]2C)C[C@H](O)[C@@H]1O [Digitoxin] | efficient cellular cannibalism enhancer | – | – | – |
| COc1cccc2c1C(=O)c1c(O)c3c(c(O)c1C2=O)C[C@@](O)(C(=O)CO)C[C@@H]3O[C@H]1C[C@H](N)[C@H](O)[C@H](C)O1.Cl [Doxorubicin hydrochloride] | efficient cellular cannibalism enhancer | – | – | – |
| CN1CCc2c(c3ccccc3n2Cc2ccccc2)C1 [Mebhydroline 1,5-naphtalene-disulfonate] | efficient cellular cannibalism enhancer | – | – | – |
| O=C(N/N=C/c1ncc[nH]1)NC12CC3CC(CC(C3)C1)C2 [VP450] | efficient cellular cannibalism enhancer | – | – | – |
